Measurements published in patent US9409952B2, “Peptide-compound cyclization method” (Chugai Seiyaku Kabushiki Kaisha, priority 2011, dated 2016).
Starred links: 1 amine or outer side, 2 acyl side, 3 side chain; linkers in the order of their positions; H or OH if unused. Positions of bridges follow the written chain, without caps; N, C: chain ends. Non-standard residues stand in square brackets, D forms with d. Residues, ends and D or L forms follow the SMILES beside them. ξ: configuration not given here. *: point of attachment. Cys(O)(CH2CO) = O=C([C@H](C[S+]([O-])CC(=O)[*:3])N[*:1])[*:2]; NMeF = CN[C@@H](Cc1ccccc1)C(=O)O; NMeI = CC[C@H](C)[C@H](NC)C(=O)O; NMeL = CN[C@@H](CC(C)C)C(=O)O; NMeA = CN[C@@H](C)C(=O)O; Piperidide = C1CCN(*)CC1; {Puro} = puromycin; ξC = NC(CS)C(=O)O; Sar = CNCC(=O)O; tBu = CC(C)(C)*

Legend:
[1] = 2 h, pH 7.1
[2] = Metabolic stability in mouse small intestinal microsome; type: in vitro ADME; conditions: for Intestinal Microsome CLg, int Mouse: Table 8, mouse; for oxidative metabolic rate relative to the parent thioether, small intestinal microsomes: compared with Compound P-112
Protocol: (§1) The obtained compound was metabolically reacted at a concentration of 2 uM with mouse serum (male/female mixed, Valley Biomedical, USA) (adjusted to pH 7.4 with 33.5 mM HEPES buffer) for two hours. Deproteinization treatment with acetonitrile was provided over time, the amount of the remaining unchanged compound was analyzed using LC/MS, and the metabolic half-life (t1/2) was calculated. A microsome solution prepared at 0.5 mg protein/mL from mouse hepatic microsome and small intestinal microsome (male, XENOTECH, USA) using 100 mM phosphate buffer (pH 7.4) was metabolically reacted with the compound at a concentration of 1 uM for 30 minutes in the presence or absence of NADPH. Deproteinization treatment with acetonitrile was provided over time, the amount of the remaining unchanged compound was analyzed using LC/MS, and the hepatic-intrinsic clearance (CLh, int) and the small intestinal-intrinsic clearance (CLg, int) were calculated (Table 7). Such peptides were sufficiently slowly metabolized by hydrolysis with peptidases or the like in mouse sera and microsomes, contrary to peptides composed of natural amino acids having low lipophilicity.
(§2) Metabolic stability tests were carried out in the same manner as shown in 2-1.

[3] = Serum stability test in mouse serum; type: in vitro ADME; conditions: both sexes, pH 7.4, two hours, read-out: Serum stability t1/2 (Mouse)
Protocol: as §1

[4] = Metabolic stability in human hepatic microsome; type: in vitro ADME; conditions: for microsomal CLint at 1 uM: pH 7.4, Hepatic Microsome CLhint Human
[5] = Metabolic stability in mouse hepatic microsome; type: in vitro ADME; conditions: for Hepatic Microsome CLh, int (Mouse) In the absence of NADPH: without NADPH; for microsomal CLint at 1 uM: male, liver microsomes, pH 7.4; for Mouse Hepatic Microsome CLh, int: Table 9, thioether versus sulfoxide
Protocol: as §1, §2

[6] = molecular target: T1, soluble human IL-6R (IL-6R) (Homo sapiens, UniProt P08887); test: IL-6/IL-6R interaction by electrochemiluminescence immunoassay (protein denaturation by desulfurization solution); type: binding; conditions: 25 mM HEPES-K pH 7.6, 200 mM TCEP, 250 mM VA-044, 10 mM Cys, room temperature, 50 minutes
T1 sequence (P08887 20-355 limits assumed): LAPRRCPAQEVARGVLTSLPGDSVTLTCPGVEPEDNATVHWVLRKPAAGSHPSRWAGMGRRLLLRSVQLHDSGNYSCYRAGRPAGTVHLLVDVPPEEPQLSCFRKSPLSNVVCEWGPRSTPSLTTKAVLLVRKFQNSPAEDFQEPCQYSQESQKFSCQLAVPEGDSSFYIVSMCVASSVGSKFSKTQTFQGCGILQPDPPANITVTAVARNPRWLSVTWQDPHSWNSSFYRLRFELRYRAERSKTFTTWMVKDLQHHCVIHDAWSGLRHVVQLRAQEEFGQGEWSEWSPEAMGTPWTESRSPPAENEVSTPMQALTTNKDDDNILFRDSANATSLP
Protocol: Protein denaturation by a desulfurization reaction solution was evaluated (FIG. 34). As a model system, the effect of the desulfurization reaction condition on IL-6R was evaluated by detecting interaction between IL-6 and IL-6R using electrochemiluminescence immunoassay. First, 750 ng of anti-IL-6R antibody clone No. 17506 (R&D biosystems) was applied to a MSD Multi-array 384-well plate (MSD) and incubated at 4° C. overnight so that the antibody was immobilized on to the plate. The plate was washed with 80 μl of PBST three times to remove the unbound antibody, and blocking was then carried out with 2% skimmed milk for 1 hour. The blocking agent was washed away from the plate with 80 μl of PBST three times, after which 10 μl of 25 nM soluble human IL-6R (IL-6R) was added and the plate was shaken at room temperature for 50 minutes. The plate was washed with 80 μl of PBST three times, a desulfurization reaction solution (25 mM HEPES-K (pH 7.6), 200 mM TCEP, 250 mM VA-044 and 10 mM Cys) was added and the plate was shaken at room temperature for 50 minutes. The plate was washed with 80 μl of PBST three times, 10 μl of human IL-6-BAP (500 nM) was added and the plate was shaken at room temperature for 50 minutes. […] The plate was washed with 80 μl of PBST three times, and 35 μl of 2× read buffer (MSD, R92SC-3) was added, followed by measurement with SECTOR Imager 2400 (MSD) (FIG. 34).

[7] = 0.5 mg protein/mL, 1 uM, 30 minutes
[8] = mouse, 0.5 mg protein/mL, 1 uM, 30 minutes, with NADPH, read-out: Hepatic Microsome CLh, int (Mouse) In the presence of NADPH

For “5′-AGCUUAGUCA-puromycin-3′ (3' {Puro}, sugars by position and backbone not given here) [Compound RP-1]”, the “amount of remaining RNA compound under desulfurization reaction condition” value [1] was “not changed”.

For `CC(C)C[C@H]1C(=O)N[C@@H](COC(C)(C)C)C(=O)N[C@H](C(=O)N2CCCCC2)CSCC(=O)N(C)[C@@H](C)C(=O)N(C)[C@@H](Cc2ccccc2)C(=O)N(C)[C@@H](CC(C)C)C(=O)N[C@@H]([C@@H](C)O)C(=O)N(C)CC(=O)N1C` [Compound P-102, Ac*-MeAla-MePhe-MeLeu-Thr-MeGly-MeLeu-Ser(tBu)-Cys*-piperidine] ({CH2CO}-[NMeA][NMeF][NMeL]T[Sar][NMeL]S(tBu)C-Piperidide; thioether N-8), the “Intestinal Microsome CLg, int Mouse” value [2] was 79.0 ul/min/mg Protein, the half-life at 2 uM [3] was > 60 h and the “Hepatic microsome CLhint (Human) In the absence of NADPH” value [4] was 3 ul/min/mg Protein. The “Hepatic microsome CLhint (Human) In the presence of NADPH” value [4] was 124 ul/min/mg Protein, the microsomal CLint at 1 uM ([4]; human, microsomes) was 124 µL/min/mg and the “Hepatic Microsome CLh, int (Mouse) In the absence of NADPH” value (from here on “Hepatic Microsome CLh, int … of NADPH”) [5, 7] was 0 ul/min/mg Protein. For the same compound, the “Hepatic Microsome CLhint Mouse” value ([5]; Table 8, mouse) was 55.1 ul/min/mg Protein and the microsomal CLint at 1 uM [5, 8] was 55.1 µL/min/mg.

With `CC[C@H](C)[C@H]1C(=O)N[C@H](C(=O)N2CCCCC2)CSCC(=O)N(C)[C@@H](Cc2ccccc2)C(=O)N(C)[C@@H](CC(C)C)C(=O)N[C@@H]([C@@H](C)O)C(=O)N(C)CC(=O)N(C)[C@@H](CC(C)C)C(=O)N[C@@H](COC(C)(C)C)C(=O)N1C` [Compound P-103, Ac*-MePhe-MeLeu-Thr-MeGly-MeLeu-Ser(tBu)-MeIle-Cys*-piperidine] ({CH2CO}-[NMeF][NMeL]T[Sar][NMeL]S(tBu)[NMeI]C-Piperidide; thioether N-8) the “Intestinal Microsome CLg, int Mouse” value [2] was 66.3 ul/min/mg Protein, the half-life at 2 uM [3] was > 60 h and the “Hepatic microsome CLhint (Human) In the absence of NADPH” value [4] was 3 ul/min/mg Protein. The “Hepatic microsome CLhint (Human) In the presence of NADPH” value [4] was 221 ul/min/mg Protein, the microsomal CLint at 1 uM ([4]; human, microsomes) was 221 µL/min/mg and the “Hepatic Microsome CLh, int … of NADPH” value [5, 7] was 11.1 ul/min/mg Protein. For the same compound, the “Hepatic Microsome CLhint Mouse” value ([5]; Table 8, mouse) was 63.0 ul/min/mg Protein, the “Mouse Hepatic Microsome CLh, int” value [5] was 63 ul/min/mg Protein and the microsomal CLint at 1 uM [5, 8] was 63 µL/min/mg.

For `CC[C@H](C)[C@H]1C(=O)N[C@H](C(=O)N2CCCCC2)CSCC(=O)N(C)[C@@H](C)C(=O)N(C)[C@@H](Cc2ccccc2)C(=O)N(C)[C@@H](CC(C)C)C(=O)N[C@@H]([C@@H](C)O)C(=O)N(C)CC(=O)N(C)[C@@H](CC(C)C)C(=O)N[C@@H](COC(C)(C)C)C(=O)N1C` [Compound P-109, Ac*-MeAla-MePhe-MeLeu-Thr-MeGly-MeLeu-Ser(tBu)-MeIle-Cys*-piperidine] ({CH2CO}-[NMeA][NMeF][NMeL]T[Sar][NMeL]S(tBu)[NMeI]C-Piperidide; thioether N-9), the “Intestinal Microsome CLg, int Mouse” value [2] was 45.8 ul/min/mg Protein, the half-life at 2 uM [3] was > 60 h and the “Hepatic microsome CLhint (Human) In the absence of NADPH” value [4] was 11 ul/min/mg Protein. For the same compound, the “Hepatic microsome CLhint (Human) In the presence of NADPH” value [4] was 158 ul/min/mg Protein, the microsomal CLint at 1 uM ([4]; human, microsomes) was 158 µL/min/mg and the “Hepatic Microsome CLh, int … of NADPH” value [5, 7] was 10.3 ul/min/mg Protein. The “Hepatic Microsome CLhint Mouse” value ([5]; Table 8, mouse) was 57.4 ul/min/mg Protein and the microsomal CLint at 1 uM [5, 8] was 57.4 µL/min/mg.

With `CC[C@H](C)[C@H]1C(=O)NC(C(=O)N2CCCCC2)CSCC(=O)N(C)[C@@H](Cc2ccccc2)C(=O)N(C)[C@@H](C)C(=O)N(C)[C@@H](Cc2ccccc2)C(=O)N(C)[C@@H](CC(C)C)C(=O)N[C@@H]([C@@H](C)O)C(=O)N(C)CC(=O)N(C)[C@@H](CC(C)C)C(=O)N[C@@H](COC(C)(C)C)C(=O)N1C` (stereo partly drawn) [Compound P-112, Ac*-MePhe-MeAla-MePhe-MeLeu-Thr-MeGly-MeLeu-Ser(tBu)-MeIle-Cys*-piperidine] ({CH2CO}-[NMeF][NMeA][NMeF][NMeL]T[Sar][NMeL]S(tBu)[NMeI][ξC]-Piperidide; thioether N-10) the “Intestinal Microsome CLg, int Mouse” value [2] was 25.9 ul/min/mg Protein, the half-life at 2 uM [3] was > 60 h and the microsomal CLint at 1 uM ([4]; human, microsomes) was 118 µL/min/mg. For the same compound, the “Hepatic Microsome CLh, int … of NADPH” value [5, 7] was 17.9 ul/min/mg Protein, the “Hepatic Microsome CLhint Mouse” value ([5]; Table 8, mouse) was 30.4 ul/min/mg Protein and the “Mouse Hepatic Microsome CLh, int” value [5] was 30.4 ul/min/mg Protein. The microsomal CLint at 1 uM [5, 8] was 30.4 µL/min/mg.

For `CC[C@H](C)[C@H]1C(=O)N[C@H](C(=O)N2CCCCC2)C[S+]([O-])CC(=O)N(C)[C@@H](C)C(=O)N(C)[C@@H](Cc2ccccc2)C(=O)N(C)[C@@H](CC(C)C)C(=O)N[C@@H]([C@@H](C)O)C(=O)N(C)CC(=O)N(C)[C@@H](CC(C)C)C(=O)N[C@@H](COC(C)(C)C)C(=O)N1C` (stereo partly drawn) [Compound P-114, (5S,8S,11S,14S,20S,23S,26S,29R)-8-benzyl-23-(tert-butoxymethyl)-26-((S)-sec-butyl)-14-((R)-1-hydroxyethyl)-11,20-diisobutyl-4,5,7,10,16,19,25-heptamethyl-29-(piperidine-1-carbonyl)-1-thia-4,7,10,13,16,19,22,25,28-nonaazacyclotriacontane-3,6,9,12,15,18,21,24,27-nonone 1-oxide] ([NMeA][NMeF][NMeL]T[Sar][NMeL]S(tBu)[NMeI][Cys(O)(CH2CO)]-Piperidide; lactam N-9), the “Intestinal Microsome CLg, int Mouse” value [2] was 9.1 ul/min/mg Protein, the “oxidative metabolic rate relative to the parent thioether, small intestinal microsomes” value [2] was 0.2 times and the “oxidative metabolic rate relative to the parent thioether, human hepatic microsomes” value [4] was “about 0.3 times”. The microsomal CLint at 1 uM ([4]; human, microsomes) was 35.3 µL/min/mg, the “oxidative metabolic rate relative to the parent thioether, mouse hepatic microsomes” value ([5]; compared with Compound P-112) was 0.6 times and the microsomal CLint at 1 uM ([5]; Table 8, mouse, read-out: Hepatic Microsome CLhint Mouse) was 33.7 µL/min/mg.

With `CC[C@H](C)[C@H]1C(=O)N[C@H](C(=O)N2CCCCC2)CS(=O)(=O)CC(=O)N(C)[C@@H](C)C(=O)N(C)[C@@H](Cc2ccccc2)C(=O)N(C)[C@@H](CC(C)C)C(=O)N[C@@H]([C@@H](C)O)C(=O)N(C)CC(=O)N(C)[C@@H](CC(C)C)C(=O)N[C@@H](COC(C)(C)C)C(=O)N1C` [Compound P-115, (5S,8S,11S,14S,20S,23S,26S,29R)-8-benzyl-23-(tert-butoxymethyl)-26-((S)-sec-butyl)-14-((R)-1-hydroxyethyl)-11,20-diisobutyl-4,5,7,10,16,19,25-heptamethyl-29-(piperidine-1-carbonyl)-1-thia-4,7,10,13,16,19,22,25,28-nonaazacyclotriacontane-3,6,9,12,15,18,21,24,27-nonone 1,1-dioxide] the “Intestinal Microsome CLg, int Mouse” value [2] was 21.8 ul/min/mg Protein, the “oxidative metabolic rate relative to the parent thioether, small intestinal microsomes” value [2] was “about 0.5 times” and the “Hepatic Microsome CLhint Human” value ([4]; human, microsomes, 1 uM, pH 7.4) was 61.6 ul/min/mg Protein. For the same compound, the “Hepatic Microsome CLhint Mouse” value ([5]; Table 8, mouse) was 42.1 ul/min/mg Protein and the “Mouse Hepatic Microsome CLh, int” value [5] was 12.1 ul/min/mg Protein.

In the case of `OC1CSSCC1O` (stereo not drawn) [oxidized DTT], the “effect on interaction between IL-6R and IL-6” value [6] is reported as “restores the interaction between IL-6R and IL-6”.
